In ChEMBL document CHEMBL1201862, “PubChem BioAssay data set” (2004):
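Dose response: 5 concentrations. Exposure: 48 h. Format: 96-well plates. Endpoint: linear interpolation; highest concentration if not reached. GI50 marks 50% less growth.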 Activity calls are given as the source filed them. No stated cut-off is given here; in the data, active = GI50 up to about 1.1 µM and inactive = higher.

Experiments:
Assay in all cases: DTP human tumour cell line panel, 48 h
A549 = system: A549
MDA-N = system: MDA-N
U-251 = system: U-251
KM12 = system: KM12
RXF 393 = system: RXF 393
Malme-3M = system: Malme-3M
HL-60 = system: HL-60
HCT-116 = system: HCT-116
HCC 2998 = system: HCC 2998
ACHN = system: ACHN
NCI-H522 = system: NCI-H522
HT-29 = system: HT-29
MDA-MB-435 = system: MDA-MB-435
786-0 = system: 786-0
MCF7 = system: MCF7
NCI-H226 = system: NCI-H226
M14 = system: M14
HOP-92 = system: HOP-92
OVCAR-5 = system: OVCAR-5
LOX IMVI = system: LOX IMVI
MDA-MB-231 = system: MDA-MB-231
SK-MEL-5 = system: SK-MEL-5
OVCAR-3 = system: OVCAR-3
TK-10 = system: TK-10
PC-3 = system: PC-3
UO-31 = system: UO-31
MOLT-4 = system: MOLT-4
IGROV-1 = system: IGROV-1
OVCAR-8 = system: OVCAR-8
SF-295 = system: SF-295
SNB-19 = system: SNB-19
SK-OV-3 = system: SK-OV-3
A498 = system: A498
HOP-62 = system: HOP-62
HCT-15 = system: HCT-15
CAKI-1 = system: CAKI-1
SR = system: SR
UACC-62 = system: UACC-62
SN12C = system: SN12C
NCI-H460 = system: NCI-H460
OVCAR-4 = system: OVCAR-4
DU-145 = system: DU-145
CCRF-CEM = system: CCRF-CEM
SK-MEL-2 = system: SK-MEL-2
SF-268 = system: SF-268
COLO 205 = system: COLO 205
EKVX = system: EKVX
BT-549 = system: BT-549
RPMI-8226 = system: RPMI-8226
SW-620 = system: SW-620
T47D = system: T47D
SNB-75 = system: SNB-75
Hs-578T = system: Hs-578T
NCI-H23 = system: NCI-H23
SF-539 = system: SF-539
NCI/ADR-RES = system: NCI/ADR-RES
UACC-257 = system: UACC-257
SK-MEL-28 = system: SK-MEL-28

Measured: GI50

COC(=O)C1CC23CCCN4CCC5(c6ccccc6N(C=O)C15CC2)C43 (stereo not given)
> 100 µM: HCT-15
inactive: A549 > 100 µM | MDA-N > 100 µM | U-251 > 100 µM | KM12 > 100 µM | RXF 393 > 100 µM | Malme-3M > 100 µM | HL-60 > 100 µM | HCT-116 > 100 µM | HCC 2998 > 100 µM | ACHN > 100 µM | NCI-H522 > 100 µM | HT-29 > 100 µM | MDA-MB-435 > 100 µM | 786-0 > 100 µM | MCF7 > 100 µM | NCI-H226 > 100 µM | M14 > 100 µM | HOP-92 > 100 µM | OVCAR-5 > 100 µM | LOX IMVI > 100 µM | MDA-MB-231 > 100 µM | SK-MEL-5 > 100 µM | OVCAR-3 > 100 µM | TK-10 > 100 µM | PC-3 > 100 µM | UO-31 > 100 µM | MOLT-4 > 100 µM | IGROV-1 > 100 µM | OVCAR-8 > 100 µM | SF-295 > 100 µM | SNB-19 > 100 µM | SK-OV-3 > 100 µM | A498 > 100 µM | HOP-62 > 100 µM | CAKI-1 > 100 µM | SR > 100 µM | UACC-62 > 100 µM | SN12C > 100 µM | NCI-H460 > 100 µM | OVCAR-4 > 100 µM | DU-145 > 100 µM | CCRF-CEM > 100 µM | SK-MEL-2 > 100 µM | SF-268 > 100 µM | COLO 205 > 100 µM | EKVX > 100 µM | BT-549 > 100 µM | RPMI-8226 > 100 µM | SW-620 > 100 µM | T47D > 100 µM | SNB-75 > 100 µM | Hs-578T > 100 µM | NCI-H23 > 100 µM | SF-539 > 100 µM | NCI/ADR-RES > 100 µM | UACC-257 > 100 µM | SK-MEL-28 > 100 µM

CC(C)(C)OC(=O)NC(CCCCNC(=O)OCc1ccccc1)C(=O)NCCNc1ccc(NCCNC(=O)C(CCCCNC(=O)OCc2ccccc2)NC(=O)OC(C)(C)C)c2c1C(=O)c1ccccc1C2=O (stereo not given)
> 100 µM: HCT-15
inactive: A549 > 100 µM | MDA-N 26.4 µM | U-251 3.18 µM | KM12 25.6 µM | RXF 393 25.7 µM | Malme-3M > 86.3 µM | HCT-116 24.5 µM | HCC 2998 8.67 µM | ACHN > 100 µM | NCI-H522 10.3 µM | HT-29 > 100 µM | MDA-MB-435 31.5 µM | 786-0 > 56.9 µM | MCF7 6.97 µM | NCI-H226 > 86.5 µM | M14 > 100 µM | HOP-92 > 42.3 µM | OVCAR-5 > 100 µM | LOX IMVI > 90.8 µM | MDA-MB-231 5.85 µM | SK-MEL-5 > 100 µM | OVCAR-3 > 79.4 µM | TK-10 > 100 µM | PC-3 > 100 µM | UO-31 > 89.7 µM | MOLT-4 > 100 µM | IGROV-1 29.3 µM | OVCAR-8 8.36 µM | SF-295 > 93.8 µM | SNB-19 10.5 µM | SK-OV-3 25.4 µM | A498 > 100 µM | HOP-62 23.9 µM | CAKI-1 > 100 µM | SR 24.3 µM | UACC-62 23 µM | SN12C > 100 µM | NCI-H460 > 100 µM | OVCAR-4 > 100 µM | DU-145 > 100 µM | SK-MEL-2 6.44 µM | SF-268 > 31.8 µM | COLO 205 27.2 µM | EKVX > 100 µM | BT-549 > 71 µM | SW-620 70.6 µM | T47D 5.11 µM | SNB-75 15.3 µM | Hs-578T 4.68 µM | NCI-H23 27.5 µM | SF-539 17.6 µM | NCI/ADR-RES 19.8 µM | UACC-257 > 100 µM | SK-MEL-28 14.7 µM
active: HL-60 1.02 µM | RPMI-8226 1.02 µM
